Measurements as given in ChEMBL document CHEMBL4334494, “Recent advances in the targeting of human DNA ligase I as a potential new strategy for cancer treatment” (Eur J Med Chem, 2019).

Tests used:
[1] = molecular target: T1, DNA ligase 1 (Homo sapiens, UniProt P18858); assay: Inhibition of human DNA ligase 1 expressed in Escherichia coli BL21DE3RP cells at 50 uM using 52-mer DNA/25-mer DNA/27-mer DNA as substrate after 30 mins by Cyanin3 dye-based fluorescence assay relative to control
[2] = molecular target: T1, DNA ligase 1; assay: Inhibition of human DNA ligase 1 at 25 uM using nicked DNA as substrate after 30 mins relative to control
[3] = system: HCT-116; assay: Antiproliferative activity against human HCT116 cells at 100 uM relative to control; format: functional
[4] = system: HEK293; assay: Cytotoxicity against HEK293 cells at 100 uM relative to control; format: cell-based; conditions: human, hek293, 100 µM
[5] = system: HepG2; assay: Antiproliferative activity against human HepG2 cells at 100 uM relative to control; format: functional
[6] = system: MDA-MB-231; assay: Antiproliferative activity against human MDA-MB-231 cells at 100 uM relative to control; format: functional
[7] = system: A549; assay: Antiproliferative activity against human A549 cells at 100 uM relative to control; format: functional
[8] = system: DLD-1; assay: Antiproliferative activity against human DLD1 cells at 100 uM relative to control; format: functional

T1 sequence (P18858 whole entry): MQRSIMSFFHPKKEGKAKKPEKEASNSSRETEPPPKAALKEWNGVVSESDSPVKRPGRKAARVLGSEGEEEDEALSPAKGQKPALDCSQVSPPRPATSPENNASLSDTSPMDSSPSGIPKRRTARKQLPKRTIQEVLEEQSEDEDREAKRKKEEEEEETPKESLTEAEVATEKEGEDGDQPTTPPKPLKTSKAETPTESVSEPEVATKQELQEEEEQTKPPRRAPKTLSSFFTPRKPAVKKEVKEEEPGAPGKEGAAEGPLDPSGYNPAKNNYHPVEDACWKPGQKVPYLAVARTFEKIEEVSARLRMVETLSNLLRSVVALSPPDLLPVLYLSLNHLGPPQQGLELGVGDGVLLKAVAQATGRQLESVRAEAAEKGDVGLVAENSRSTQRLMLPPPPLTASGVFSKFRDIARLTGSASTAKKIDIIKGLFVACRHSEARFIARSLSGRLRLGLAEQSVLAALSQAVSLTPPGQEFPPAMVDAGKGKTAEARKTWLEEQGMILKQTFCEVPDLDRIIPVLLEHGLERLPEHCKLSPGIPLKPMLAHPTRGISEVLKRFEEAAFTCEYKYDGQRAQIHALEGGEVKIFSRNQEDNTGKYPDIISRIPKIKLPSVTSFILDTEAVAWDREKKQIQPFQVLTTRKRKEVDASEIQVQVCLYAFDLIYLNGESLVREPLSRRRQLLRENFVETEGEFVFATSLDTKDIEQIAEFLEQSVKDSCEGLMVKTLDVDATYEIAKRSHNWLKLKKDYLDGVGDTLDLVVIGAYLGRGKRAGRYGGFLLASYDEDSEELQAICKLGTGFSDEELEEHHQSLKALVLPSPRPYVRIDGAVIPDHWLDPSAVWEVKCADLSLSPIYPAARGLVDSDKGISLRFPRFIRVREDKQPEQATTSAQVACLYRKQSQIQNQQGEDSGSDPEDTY

Row | Structure (SMILES) | inhibition [2] [%] | inhibition at 100 µM [3] [%] | Activity [4] [%] | inhibition at 100 µM [5] [%] | inhibition at 100 µM [6] [%] | inhibition at 100 µM [7] [%] | inhibition at 100 µM [8] [%] | further results
1 | Cc1ccc(/C=C2\CN(C(=S)NCc3ccccc3)C/C(=C\c3ccc(C)cc3)C2=O)cc1 | – | – | – | – | – | – | – | inhibition [1]: > 75%
2 | CCOC(=O)C1=C(C)NC(=O)NC1c1cc(/C=N/NC(=S)NC)c(O)c(C(C)(C)C)c1 (configuration not stated) | – | > 80 | > 80 | > 80 | > 80 | > 80 | > 80 | –
3 | Cc1ccccc1/C=C1\CN(c2nc(-c3ccccc3)cs2)C/C(=C\c2ccccc2C)C1=O | – | – | – | – | – | – | – | inhibition [1]: > 75%
4 | Cc1cccc2c1ccc1c(/C=C/c3ccc([N+](=O)[O-])cc3)cc(=O)oc12 | > 90 | – | – | – | – | – | – | –
5 | CCCCNC(=S)N1C/C(=C\c2ccc(OC)cc2)C(=O)/C(=C/c2ccc(OC)cc2)C1 | – | – | – | – | – | – | – | inhibition [1]: > 75%
6 | O=C1/C(=C/c2ccc(F)cc2)CN(C(=S)NCc2ccccc2)C/C1=C\c1ccc(F)cc1 | – | – | – | – | – | – | – | inhibition [1]: > 75%
7 | CCOC(=O)C1=C(C)NC(=O)NC1c1cc(/C=N/NC(N)=O)c(O)c(C(C)(C)C)c1 (configuration not stated) | – | < 80 | < 80 | < 80 | < 80 | < 80 | < 80 | –
8 | CCOC(=O)C1=C(C)NC(=O)NC1c1cc(/C=N/NC(=O)Nc2ccc(Br)cc2)c(O)c(C(C)(C)C)c1 (configuration not stated) | – | > 80 | > 80 | > 80 | > 80 | > 80 | > 80 | –
9 | CCOC(=O)C1=C(C)NC(=S)NC1c1cc(/C=N/NC(=S)Nc2ccc(Cl)cc2)c(O)c(C(C)(C)C)c1 (configuration not stated) | – | < 80 | < 80 | < 80 | < 80 | < 80 | < 80 | –
10 | Cc1ccccc1/C=C1\CN(C(=S)Nc2ccccc2)C/C(=C\c2ccccc2C)C1=O | – | – | – | – | – | – | – | inhibition [1]: > 75%
11 | CCOC(=O)C1=C(C)NC(=S)NC1c1cc(/C=N/NC(=S)Nc2ccc(C)cc2)c(O)c(C(C)(C)C)c1 (configuration not stated) | – | < 80 | < 80 | < 80 | < 80 | < 80 | < 80 | –
12 | CCOC(=O)C1=C(C)NC(=O)NC1c1cc(C)c(O)c(/C=N/NC(=S)NC)c1 (configuration not stated) | – | > 80 | > 80 | > 80 | > 80 | > 80 | > 80 | –
13 | CCOC(=O)C1=C(C)NC(=S)NC1c1cc(/C=N/NC(=O)Nc2ccc(Cl)cc2)c(O)c(C(C)(C)C)c1 (configuration not stated) | – | < 80 | < 80 | < 80 | < 80 | < 80 | < 80 | –
14 | O=C1/C(=C/c2ccccc2F)CN(c2nc(-c3ccccc3)cs2)C/C1=C\c1ccccc1F | – | – | – | – | – | – | – | inhibition [1]: > 75%
15 | COc1ccc(/C=C2\CN(C(=S)NCc3ccccc3)C/C(=C\c3ccc(OC)cc3)C2=O)cc1 | – | – | – | – | – | – | – | inhibition [1]: > 75%
16 | CCOC(=O)C1=C(C)NC(=O)NC1c1cc(C)c(O)c(/C=N/NC(N)=S)c1 (configuration not stated) | – | > 80 | > 80 | > 80 | > 80 | > 80 | > 80 | –
17 | COc1cc(/C=C/c2cc(=O)oc3c2ccc2c(C)cccc23)c(OC)c(OC)c1OC | < 50 | – | – | – | – | – | – | –
18 | CCOC(=O)C1=C(C)NC(=O)NC1c1cc(/C=N/NC(=S)Nc2ccccc2)c(O)c(C(C)(C)C)c1 (configuration not stated) | – | > 80 | > 80 | > 80 | > 80 | > 80 | > 80 | –
19 | CCOC(=O)C1=C(C)NC(=S)NC1c1cc(C)c(O)c(/C=N/NC(=O)Nc2ccc(Cl)cc2)c1 (configuration not stated) | – | > 80 | > 80 | > 80 | > 80 | > 80 | > 80 | –

Continued, in another order:

Row | inhibition [2] [%] | Structure (SMILES) | inhibition at 100 µM [3] [%] | Activity [4] [%] | inhibition at 100 µM [5] [%] | inhibition at 100 µM [6] [%] | inhibition at 100 µM [7] [%] | inhibition at 100 µM [8] [%] | further results
20 | < 50 | COc1ccc(/C=C/c2cc(=O)oc3c2ccc2c(OC)cccc23)c(OC)c1 | – | – | – | – | – | – | –
21 | < 50 | COc1ccc(/C=C/c2cc(=O)oc3c2ccc2c(C)cccc23)cc1OC | – | – | – | – | – | – | –
22 | < 50 | N#Cc1ccc(/C=C/c2cc(=O)oc3c2ccc2ccccc23)cc1 | – | – | – | – | – | – | –
23 | > 50 | COc1cc(/C=C/c2cc(=O)oc3c2ccc2c(C)cccc23)cc(OC)c1 | – | – | – | – | – | – | –
24 | < 50 | COc1cccc(/C=C/c2cc(=O)oc3c2ccc2ccccc23)c1 | – | – | – | – | – | – | –
25 | < 50 | COc1ccc(/C=C/c2cc(=O)oc3c2ccc2c(OC)cccc23)cc1 | – | – | – | – | – | – | –
26 | < 50 | COc1ccc(/C=C/c2cc(=O)oc3c2ccc2ccccc23)cc1 | – | – | – | – | – | – | –
27 | > 90 | COc1cccc2c1ccc1c(/C=C/c3ccc(C#N)cc3)cc(=O)oc12 | – | – | – | – | – | – | –
28 | > 90 | COc1ccc(/C=C/c2cc(=O)oc3c2ccc2c(C)cccc23)c(OC)c1 | – | – | – | – | – | – | –
29 | < 50 | CN(C)c1ccc(/C=C/c2cc(=O)oc3c2ccc2ccccc23)cc1 | – | – | – | – | – | – | –
30 | < 50 | COc1ccc(/C=C/c2cc(=O)oc3c2ccc2ccccc23)cc1OC | – | – | – | – | – | – | –
31 | < 50 | COc1cc(/C=C/c2cc(=O)oc3c2ccc2c(OC)cccc23)cc(OC)c1OC | – | – | – | – | – | – | –
32 | > 90 | O=c1cc(/C=C/c2ccc([N+](=O)[O-])cc2)c2ccc3ccccc3c2o1 | – | – | – | – | – | – | –
